According to patent US20260325655A1, “DECREASING THE INTRINSICALLY DISORDERED PROTEIN ALPHA-SYNUCLEIN’S LEVELS BY TARGETING ITS STRUCTURED MRNA WITH A RIBONUCLEASE TARGETING CHIMERA” (University of Florida Research Foundation, Incorporated, priority 2023, published 2026):

Experiments:
[1] = tested on: control luciferase reporter lacking an IRE; test: control luciferase reporter lacking an IRE; format: cell-based, human; conditions: reporter lacks IRE / SNCA-UTR sequence
Excerpt: (§1) Plasmid constructs and establishment of reporter gene overexpressing cells. Construction of pIRES-Luc-EGFP-puro plasmid and pCDH-α-syn-5′-UTR-Luc-EGFP-puro plasmid used in 5′ UTR-luciferase-based selectivity assay were previously described.^4 Briefly, In-Fusion PCR cloning system (Takara Bio, Mountain View, CA, USA) was used for all plasmid constructions per the manufacturer's instructions. To ensure sequence accuracy, all plasmids generated in this study were confirmed by sequencing.
(§2) Luciferase assay. The effect of compounds on translation of SNCA IRE-containing transcript was measured by using a luciferase reporter assay. HeLa cells (~60% confluency) were transfected with plasmids (2 μg per 60 mm dish) by using JetPrime (Polyplus Transfection) according to the manufacturer's recommended procedures. Approximately 16 h after transfection, the transfection cocktail was removed, and the cells were trypsinized and seeded to 96-well plates (8,000 cells per well). After 6 h, cells were treated as described in Cell Culture. To measure the luciferase signals, the cells were then washed with 1× DPBS, and luciferase activity in each well was measured by using the ONE-Glo Luciferase Assay System (Promega) per the manufacturer's instructions. Luminescence from firefly luciferase reaction was measured using a Biomek FLx800 plate reader.

SNCA-UTR-Luciferase = test: SNCA-UTR luciferase reporter assay; format: cell-based, human; conditions: highest concentration tested
Excerpt: as §1, §2

SNCA IRE = test: MST binding affinity for SNCA IRE (A bulge model RNA); conditions: microscale thermophoresis; Cy5-labeled RNA
Description: (§3) Binding Affinity Measurements: Microscale Thermophoresis (MST). Binding affinity measurements were performed on a Monolith NT.115 MST system (NanoTemper Technologies) with Cy5-labeled oligonucleotides. Briefly, Cy5-labeled RNA (5 nM) was prepared in 1× Folding Buffer and folded by heating at 60° C. for 5 min and then slowly cooling to room temperature. After cooling, Tween-20 was added to a final concentration of 0.1% (v/v). Compound solutions were prepared separately in 30 μL of 1× Assay Buffer at a final concentration of 5 μM (1% (v/v) DMSO), followed by 1:1 serial dilutions in 1× Assay Buffer. RNA and compound solutions were then mixed 1:1 by volume.
(§4) Samples were incubated for 20 min at room temperature and then loaded into premium capillaries (NanoTemper Technologies, Cat #MO-K025). The following parameters were used for MST measurement: 5-20% LED power (adjusted to keep fluorescence intensity between 8000 and 18000), 80% MST power, Laser-On time=30 s, and Laser-Off time=5 s. The resulting data were analyzed by calculating the change in thermophoresis as a function of compound concentration and fitted by Equation (3) in MST analysis software (NanoTemper Technologies) to yield the dissociation constant (Kd):
(§5) where F is the concentration of fluorescently labeled RNA; unbound and bound refer to the thermophoresis signal at completely unbound and bound state of RNA, respectively; c is the concentration of the compound; f (c) is the thermophoresis signal at compound concentration of c; Kd is the dissociation constant.

fully base paired RNA = test: MST binding to fully base paired control RNA; conditions: microscale thermophoresis
Description: as §3, §4, §5

RNase L = conditions: regioisomer recruiter module of Syn-CTRL vs active recruiter (ref 48); cited from earlier work
[2] = tested on: SNCA IRE-luciferase transcript; test: SNCA IRE-luciferase transcript abundance by RT-qPCR; format: cell-based, human
Description: RNA extraction and reverse transcription-quantitative polymerase chain reaction (RT-qPCR). Total RNA was extracted from cells using a Quick-RNA MiniPrep Kit (Zymo Research) per the manufacturer's protocol including DNase treatment. For each sample, 200 ng of RNA was reverse transcribed into cDNA by using a qScript cDNA Synthesis Kit (QuantaBio) according to the manufacturer's instructions. To assess the relative mRNA levels, RT-qPCR was performed in triplicate using SYBR Green PCR mater mix (Applied Biosystems) with a Quant Studio 5 Real-Time PCR system. The relative levels of mRNA were calculated by using the ΔΔCt method as previously described.^8
as §1

inhibition in the control luciferase reporter [1]: Neither compound showed inhibition
decrease of luminescence signal (in words) (SNCA-UTR-Luciferase): modest decrease
Kd (SNCA IRE): 0.097 ± 0.003 µM
binding towards the fully base paired RNA (fully base paired RNA): no saturable binding
Structure (SMILES): CCOC(=O)C1=C(Nc2ccccc2)S/C(=C\c2ccc(O)c(OCCOCCOCCOCCNC(=O)CCCOc3ccc(-n4c(SCC(=O)Nc5ccc6cn[nH]c6c5)nnc4-c4ccncc4)cc3)c2)C1=O [Syn-CTRL]
loss of activity of the RNase L-recruiting module in inducing RNase L cleavage (RNase L): ~ 20 -fold less active
effect on SNCA IRE-luciferase transcript levels (in words) [2]: no effect
